Assay results taken from PubChem BioAssay (NCI).
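Briefly, cells in 96-well plates were exposed to five compound concentrations for 48 h, and endpoints were estimated by linear interpolation. GI50 marks 50% less growth. TGI: concentration producing complete growth inhibition.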

Columns and labels:
Assay in all cases: NCI tumour cell line growth inhibition, 48 h
786-0 renal = tested on: 786-0 renal
A498 renal = tested on: A498 renal
A549 NSCLC = tested on: A549 NSCLC
ACHN renal = tested on: ACHN renal
BT-549 breast = tested on: BT-549 breast
CAKI-1 renal = tested on: CAKI-1 renal
CCRF-CEM leukemia = tested on: CCRF-CEM leukemia
COLO 205 colon = tested on: COLO 205 colon
DU-145 prostate = tested on: DU-145 prostate
EKVX NSCLC = tested on: EKVX NSCLC
HCC-2998 colon = tested on: HCC-2998 colon
HCT-116 colon = tested on: HCT-116 colon
HCT-15 colon = tested on: HCT-15 colon
HL-60(TB) leukemia = tested on: HL-60(TB) leukemia
HOP-62 NSCLC = tested on: HOP-62 NSCLC
HOP-92 NSCLC = tested on: HOP-92 NSCLC
HS 578T breast = tested on: HS 578T breast
HT29 colon = tested on: HT29 colon
IGROV1 ovarian = tested on: IGROV1 ovarian
K-562 leukemia = tested on: K-562 leukemia
KM12 colon = tested on: KM12 colon
LOX IMVI melanoma = tested on: LOX IMVI melanoma
M14 melanoma = tested on: M14 melanoma
MALME-3M melanoma = tested on: MALME-3M melanoma
MCF7 breast = tested on: MCF7 breast
MDA-MB-231 breast = tested on: MDA-MB-231 breast
MDA-MB-435 = tested on: MDA-MB-435
MDA-MB-468 breast = tested on: MDA-MB-468 breast
MOLT-4 leukemia = tested on: MOLT-4 leukemia
NCI-H226 lung = tested on: NCI-H226 lung
NCI-H23 lung = tested on: NCI-H23 lung
NCI-H460 lung = tested on: NCI-H460 lung
NCI-H522 lung = tested on: NCI-H522 lung
OVCAR-3 ovarian = tested on: OVCAR-3 ovarian
OVCAR-4 ovarian = tested on: OVCAR-4 ovarian
OVCAR-5 ovarian = tested on: OVCAR-5 ovarian
OVCAR-8 ovarian = tested on: OVCAR-8 ovarian
PC-3 prostate = tested on: PC-3 prostate
RPMI-8226 leukemia = tested on: RPMI-8226 leukemia
RXF 393 renal = tested on: RXF 393 renal
SF-268 CNS = tested on: SF-268 CNS
SF-295 CNS = tested on: SF-295 CNS
SF-539 CNS = tested on: SF-539 CNS
SK-MEL-2 melanoma = tested on: SK-MEL-2 melanoma
SK-MEL-28 melanoma = tested on: SK-MEL-28 melanoma
SK-MEL-5 melanoma = tested on: SK-MEL-5 melanoma
SK-OV-3 ovarian = tested on: SK-OV-3 ovarian
SN12C renal = tested on: SN12C renal
SNB-19 CNS = tested on: SNB-19 CNS
SNB-75 CNS = tested on: SNB-75 CNS
SR leukemia = tested on: SR leukemia
SW-620 colon = tested on: SW-620 colon
T-47D breast = tested on: T-47D breast
TK-10 renal = tested on: TK-10 renal
U251 CNS = tested on: U251 CNS
UACC-257 melanoma = tested on: UACC-257 melanoma
UACC-62 melanoma = tested on: UACC-62 melanoma
UO-31 renal = tested on: UO-31 renal

N#Cc1c(NC(=O)c2ccc(C(F)(F)F)cc2)sc2c1CCC(O)=C2
GI50 (786-0 renal): 5.53 µM | TGI (786-0 renal): 22.1 µM | GI50 (A498 renal): 14 µM | TGI (A498 renal): 34.2 µM | GI50 (A549 NSCLC): 6.36 µM | TGI (A549 NSCLC): 24.1 µM | GI50 (ACHN renal): 6.81 µM | TGI (ACHN renal): 27.9 µM | GI50 (BT-549 breast): 2.82 µM | TGI (BT-549 breast): 19.3 µM | GI50 (CAKI-1 renal): 3.05 µM | TGI (CAKI-1 renal): 16 µM | GI50 (CCRF-CEM leukemia): 3.21 µM | TGI (CCRF-CEM leukemia): > 100 µM | GI50 (COLO 205 colon): 13.4 µM | TGI (COLO 205 colon): 30 µM | GI50 (DU-145 prostate): 6.53 µM | TGI (DU-145 prostate): 22 µM | GI50 (EKVX NSCLC): 7.4 µM | TGI (EKVX NSCLC): 31.4 µM | GI50 (HCC-2998 colon): 7.46 µM | TGI (HCC-2998 colon): 21.2 µM | GI50 (HCT-116 colon): 3.49 µM | TGI (HCT-116 colon): 13.4 µM | GI50 (HCT-15 colon): 3.51 µM | TGI (HCT-15 colon): 15.8 µM | GI50 (HL-60(TB) leukemia): 2.77 µM | TGI (HL-60(TB) leukemia): > 100 µM | GI50 (HOP-62 NSCLC): 4.49 µM | TGI (HOP-62 NSCLC): 17.8 µM | GI50 (HOP-92 NSCLC): 2.85 µM | TGI (HOP-92 NSCLC): 21.9 µM | GI50 (HS 578T breast): 2.32 µM | TGI (HS 578T breast): 14.1 µM | GI50 (HT29 colon): 4.61 µM | TGI (HT29 colon): 18.3 µM | GI50 (IGROV1 ovarian): 5.23 µM | TGI (IGROV1 ovarian): 19 µM | GI50 (K-562 leukemia): 2.23 µM | TGI (K-562 leukemia): > 100 µM | GI50 (KM12 colon): 3.16 µM | TGI (KM12 colon): 13.1 µM | GI50 (LOX IMVI melanoma): 4.56 µM | TGI (LOX IMVI melanoma): 16.8 µM | GI50 (M14 melanoma): 3.6 µM | TGI (M14 melanoma): 15.8 µM | GI50 (MALME-3M melanoma): 2.29 µM | TGI (MALME-3M melanoma): 12 µM | GI50 (MCF7 breast): 3.03 µM | TGI (MCF7 breast): 21.7 µM | GI50 (MDA-MB-231 breast): 2.96 µM | TGI (MDA-MB-231 breast): 14.3 µM | GI50 (MDA-MB-435): 1.23 µM | TGI (MDA-MB-435): 3.31 µM | GI50 (MDA-MB-468 breast): 2.12 µM | TGI (MDA-MB-468 breast): 8.11 µM | GI50 (MOLT-4 leukemia): 4.43 µM | TGI (MOLT-4 leukemia): > 100 µM | GI50 (NCI-H226 lung): 4.03 µM | TGI (NCI-H226 lung): 19.2 µM | GI50 (NCI-H23 lung): 4.91 µM | TGI (NCI-H23 lung): 22 µM | GI50 (NCI-H460 lung): 3.53 µM | TGI (NCI-H460 lung): 14.2 µM | GI50 (NCI-H522 lung): 2.53 µM | TGI (NCI-H522 lung): 12 µM | GI50 (OVCAR-3 ovarian): 3.24 µM | TGI (OVCAR-3 ovarian): 12 µM | GI50 (OVCAR-4 ovarian): 7.47 µM | TGI (OVCAR-4 ovarian): 35 µM | GI50 (OVCAR-5 ovarian): 5.38 µM | TGI (OVCAR-5 ovarian): 25 µM | GI50 (OVCAR-8 ovarian): 5.71 µM | TGI (OVCAR-8 ovarian): 22.3 µM | GI50 (PC-3 prostate): 6.12 µM | TGI (PC-3 prostate): > 100 µM | GI50 (RPMI-8226 leukemia): 3.53 µM | TGI (RPMI-8226 leukemia): > 100 µM | GI50 (RXF 393 renal): 2.38 µM | TGI (RXF 393 renal): 12.7 µM | GI50 (SF-268 CNS): 3.87 µM | TGI (SF-268 CNS): 20.7 µM | GI50 (SF-295 CNS): 4.08 µM | TGI (SF-295 CNS): 16.7 µM | GI50 (SF-539 CNS): 2.1 µM | TGI (SF-539 CNS): 6.92 µM | GI50 (SK-MEL-2 melanoma): 3.21 µM | TGI (SK-MEL-2 melanoma): 11.7 µM | GI50 (SK-MEL-28 melanoma): 6.17 µM | TGI (SK-MEL-28 melanoma): 25.8 µM | GI50 (SK-MEL-5 melanoma): 2.71 µM | TGI (SK-MEL-5 melanoma): 9.4 µM | GI50 (SK-OV-3 ovarian): 4.36 µM | TGI (SK-OV-3 ovarian): 20 µM | GI50 (SN12C renal): 4.08 µM | TGI (SN12C renal): 16.5 µM | GI50 (SNB-19 CNS): 7.46 µM | TGI (SNB-19 CNS): 24.3 µM | GI50 (SNB-75 CNS): 1.12 µM | TGI (SNB-75 CNS): 6.1 µM | GI50 (SR leukemia): 1.48 µM | TGI (SR leukemia): > 100 µM | GI50 (SW-620 colon): 3.13 µM | TGI (SW-620 colon): 14 µM | GI50 (T-47D breast): 3.13 µM | TGI (T-47D breast): 24.9 µM | GI50 (TK-10 renal): 13.3 µM | TGI (TK-10 renal): 50.3 µM | GI50 (U251 CNS): 4.13 µM | TGI (U251 CNS): 16.5 µM | GI50 (UACC-257 melanoma): 6.64 µM | TGI (UACC-257 melanoma): 29.4 µM | GI50 (UACC-62 melanoma): 3.23 µM | TGI (UACC-62 melanoma): 16.2 µM | GI50 (UO-31 renal): 2.12 µM | TGI (UO-31 renal): 16.4 µM
